Source: US11299496B2, “Ligands for alpha-7 nicotinic acetylcholine receptors and methods of treating neurological and inflammatory conditions” (Northeastern University, priority 2014, dated 2022)

Biological target: T1, human alpha-7 nAChR (Homo sapiens, UniProt P36544)
T1 construct: expressed in transfected cells; host or cells: Xenopus laevis oocytes (cRNA injection)
Assay: Two-electrode voltage clamp of alpha-7 nAChR expressed in Xenopus oocytes (net charge)
Type: cell-based
Conditions: for Charge Alone: compound alone acting as an allosteric agonist; for Charge Alone / Charge +C: area under the curve of current vs. time; for Charge +C: compound together with choline or ACh, includes PAM and ago-PAM activity; call rule not given here
Procedure: The human alpha-7 nAChR receptor clone was obtained from Dr. Jon Lindstrom {University of Pennsylvania, Philadelphia, Pa.), aid the RIC-3 clone from Dr. Millet Treinin (Hebrew University, Jerusalem, Israel) for the purpose of co-injection with a7 to improve the level and speed of receptor expression (Halevi et al., 2003). After linearization and purification of cloned cDNA's, RNA, transcripts were prepared rising the appropriate mMessage mMachine kit tiom Ambion (Austin, Tex.).
Expression in X, laeivis Oocytes
Oocytes were obtained from mature (>9 cm) female Xenopus laeivis African frogs (Nasco, Ft. Atkinson, Wis.). Frogs were anesthetized in 0.7 g/L solution of ethyl 3-aminobenzoate methanesulfonate buffered with sodium bicarbonate, and oocytes were surgically removed through an abdominal incision. Harvested oocytes were treated with 1.25 mg/ml collagenase (Worthington Biochemicals, Freehold, N.J.) in calcium-free Barth's solution (88 mM NaCl, 1 mM KCl, 2.38 mM NaHCO3, 0.82 mM MgSO4, 15 mM HEPES, 12 mg/L tetracycline, pH 7.6) for 3-4 hours to remove the follicular layer. Stage-5 oocytes were isolated and injected with 50 nL (5-20 ng) of human alpha-7 and RIC-3 cRNA. Suitable levels of receptor expression were typically achieved 2-6 days after injection of cRNA. For experiments involving the PAM 4BP-TQS/GAT-107, where standard levels of expression result in ion currents too large to be recorded in voltage clamp, experiments were typically conducted 1-3 days after RNA injection.
Two-electrode voltage clamp experiments were conducted using OpusXpress6000A (Molecular Devices, Sunnyvale, Calif.), an integrated system that provides automated impalement and voltage clamp of up to eight oocytes in parallel. Both the current and voltage electrodes were filled with 3 M KCl, and oocytes were clamped at a holding potential of −60 mV. Data were collected at 50 Hz and filtered at 20 Hz. The oocytes were bath-perfused with Ringer's solution (115 mM NaCl, 10 mM HEPES, 2.5 mM KCl, 1.8 mM CaCl2, pH 7.3), and agonist solutions were delivered from a 96-well drug plate using disposable tips. Flow rates were set at 2 mL/min, with each drug or control solution delivered in 12 s durations, followed˜by 181 s washouts with Ringer's unless noted otherwise.
Experimental Protocols and Data Analysis
Responses of human alpha-7 receptors to agonists were measured as both peek current and net charge measured over a 120 s period beginning with the compound application (Papke and Papke, 2002). […] In experiments involving positive allosteric modulators (PAMs), the fast desensitization of alpha-7 was eliminated, allowing peak currents to be used as a valid measurement of the receptor-mediated responses (Wang et al., 2012; Williams et al., 2011).
Oocytes received two control ACh applications prior to receiving any drug in order to establish a steady reference response, and they received one or more control ACh applications at the end of all experiments. For experiments involving drug incubation through bath applications, all responses were normalized to the average of two ACh control responses taken immediately prior to the switch of bath solution, for each cell individually. These normalization procedures had the effect of compensating for differing levels of receptor expression among the multiple oocytes used in each experiment. Each experiment was conducted on at least four oocytes, with mean values and standard errors (S.E.M.) calculated from their normalized responses. […]

T1 sequence (P36544 23-502): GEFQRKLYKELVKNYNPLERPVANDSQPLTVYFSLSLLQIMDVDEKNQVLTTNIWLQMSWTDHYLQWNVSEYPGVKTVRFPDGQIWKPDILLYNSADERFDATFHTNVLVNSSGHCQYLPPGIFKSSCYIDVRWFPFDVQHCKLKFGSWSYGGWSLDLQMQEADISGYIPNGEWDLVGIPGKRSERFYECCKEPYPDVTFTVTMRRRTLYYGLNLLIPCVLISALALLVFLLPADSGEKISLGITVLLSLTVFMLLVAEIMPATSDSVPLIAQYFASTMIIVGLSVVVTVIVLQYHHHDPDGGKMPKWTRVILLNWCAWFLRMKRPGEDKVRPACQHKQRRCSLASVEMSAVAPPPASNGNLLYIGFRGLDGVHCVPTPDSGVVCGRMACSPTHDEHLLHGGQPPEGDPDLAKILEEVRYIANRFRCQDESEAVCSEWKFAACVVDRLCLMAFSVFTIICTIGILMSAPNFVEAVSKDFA

Charge Alone | Charge +C | 'ago' component / ago-PAM activity (in words) | SMILES
Inactive | Inactive |  | NS(=O)(=O)c1ccc2c(c1)[C@H]1C=CC[C@H]1CN2 (stereo in doubt) [Compound 33, 3a,4,5,9b-tetrahydro-3H-cyclopenta[c]quinoline-8-sulfonamide]
Inactive | Inactive |  | CC(=O)NS(=O)(=O)c1ccc2c(c1)[C@H]1C=CC[C@H]1[C@@H](c1ccc(Br)cc1)N2 (stereo in doubt) [Compound 116, N-((4-(4-bromophenyl)-3a,4,5,9b-tetrahydro-3H-cyclopenta[c]quinolin-8-yl)sulfonyl)acetamide]
Inactive | Inactive |  | CCNS(=O)(=O)c1ccc2c(c1)[C@@H]1C=CC[C@@H]1[C@@H](c1ccc(Br)cc1)N2 [Compound 113]
 | 76 |  | NS(=O)(=O)c1ccc2c(c1)[C@H]1C=CC[C@H]1[C@@H](c1ccc(-c3ccccc3)cc1)N2 (stereo in doubt) [Compound 12, 4-([1,1′-biphenyl]-4-yl)-3a,4,5,9b-tetrahydro-3H-cyclopenta[c]quinoline-8-sulfonamide]
29 | 348 |  | NS(=O)(=O)c1ccc2c(c1)[C@H]1C=CC[C@H]1[C@@H](c1ccc(Br)nc1)N2 [Compound 94, 4-(6-bromopyridin-3-yl)-3a,4,5,9b-tetrahydro-3H-cyclopenta[c]quinoline-8-sulfonamide]
 | 250 |  | Nc1ccc([C@H]2Nc3ccc(S(N)(=O)=O)cc3[C@H]3C=CC[C@H]32)cc1 (stereo in doubt) [Compound 18, 4-(4-aminophenyl)-3a,4,5,9b-tetrahydro-3H-cyclopenta[c]quinoline-8-sulfonamide]
Inactive | Inactive |  | O=C(O)c1ccc2c(c1)[C@H]1C=CC[C@H]1[C@@H](c1ccc(Cl)cc1Cl)N2 [Compound 29, 4-(2,4-dichlorophenyl)-3a,4,5,9b-tetrahydro-3H-cyclopenta[c]quinoline-8-carboxylic acid]
Inactive | Inactive |  | N#Cc1ccc([C@@H]2Nc3ccc(S(N)(=O)=O)cc3[C@H]3C=CC[C@H]32)cc1 (stereo in doubt) [Compound 6, 4-(4-cyanophenyl)-3a,4,5,9b-tetrahydro-3H-cyclopenta[c]quinoline-8-sulfonamide]
Inactive | Inactive |  | O=S(=O)(NC1CCCCC1)c1ccc2c(c1)[C@H]1C=CC[C@H]1[C@@H](c1ccc(Br)cc1)N2 (stereo in doubt) [Compound 102, 4-(4-bromophenyl)-N-cyclohexyl-3a,4,5,9b-tetrahydro-3H-cyclopenta[c]quinoline-8-sulfonamide]
Inactive | Inactive |  | CC(C)(C)NS(=O)(=O)c1ccc2c(c1)[C@H]1C=CC[C@H]1[C@@H](c1ccc(Br)cc1)N2 (stereo in doubt) [Compound 101, 4-(4-bromophenyl)-N-(tert-butyl)-3a,4,5,9b-tetrahydro-3H-cyclopenta[c]quinoline-8-sulfonamide]
 | 157 |  | NS(=O)(=O)c1ccc2c(c1)[C@H]1C=CC[C@H]1[C@@H](c1csc(Br)c1)N2 (stereo in doubt) [Compound 35, 4-(5-bromothiophen-3-yl)-3a,4,5,9b-tetrahydro-3H-cyclopenta[c]quinoline-8-sulfonamide]
 | 35 |  | NS(=O)(=O)c1ccc2c(c1)[C@H]1C=CC[C@H]1[C@@H](c1ccc(NC(=O)OC34CC5CC(CC(C5)C3)C4)cc1)N2 (stereo in doubt) [Compound 62, adamantan-1-yl (4-(8-sulfamoyl-3a,4,5,9b-tetrahydro-3H-cyclopenta[c]quinolin-4-yl)phenyl)carbamate]
20 | 67 | moderate ago-PAM activity | NS(=O)(=O)c1ccc2c(c1)[C@H]1C=CC[C@H]1[C@@H](c1ccc(OCc3ccccc3)cc1)N2 [Compound 50, (3aR,4S,9bS)-4-(4-(benzyloxy)phenyl)-3a,4,5,9b-tetrahydro-3H-cyclopenta[c]quinoline-8-sulfonamide]
